This passage reports IC50 results from patent publication US20250073340A1, “SPIROCYCLIC MDM2 MODULATOR AND USES THEREOF” (Newave Pharmaceutical Inc., priority 2021, published 2025).

SMILES strings stand for the structures.

In one assay the target is MDM2 (Homo sapiens (Human), UniProt Q00987). Kind of assay: In vitro MDM2 HTRF assay (inhibition of p53-MDM2 interaction). The assay is classed as binding. Particulars: GST-MDM2 / biotinylated p53 peptide.
Assay [1] concerns BCL-2-dependent acute lymphoblastic leukemia (ALL) cell line RS4;11 overexpressing Bcl-2 G101V. Nature of the assay: cells. Particulars: Homo sapiens, RS4-11; about 72 hours, ATPlite luminescence; read-out: RS4;11-G101V IC50. The assay is classed as cell-based. How it is done: Biological Example 2: In vitro Anti-proliferation Assay in BCL-2-dependent acute lymphoblastic leukemia (ALL) cell line RS4; 11 overexpressing Bcl-2 G101V
Cell antiproliferation was assayed by PerkinElmer ATPlite™ Luminescence Assay System. Briefly, the various test cancer cell lines were plated at a density of about 1×10^4 cells per well in Costar 96-well plates, and were incubated with different concentrations of compounds for about 72 hours in medium supplemented with 5% FBS or 10% normal human serum (NHS). One lyophilized substrate solution vial was then reconstituted by adding 5 mL of substrate buffer solution, and was agitated gently until the solution was homogeneous. About 50 μL of mammalian cell lysis solution was added to 100 μL of cell suspension per well of a microplate, and the plate was shaken for about five minutes in an orbital shaker at −700 rpm. This procedure was used to lyse the cells and to stabilize the ATP. Next, 50 μL substrate solution was added to the wells and microplate was shaken for five minutes in an orbital shaker at −700 rpm. Finally, the luminescence was measured by a PerkinElmer TopCount® Microplate Scintillation Counter. Such assays, carried out with a range of doses of test compounds, allowed the determination of the cellular anti-antiproliferative IC50 of the compounds of the present invention.

MDM2, sequence (Q00987 whole entry): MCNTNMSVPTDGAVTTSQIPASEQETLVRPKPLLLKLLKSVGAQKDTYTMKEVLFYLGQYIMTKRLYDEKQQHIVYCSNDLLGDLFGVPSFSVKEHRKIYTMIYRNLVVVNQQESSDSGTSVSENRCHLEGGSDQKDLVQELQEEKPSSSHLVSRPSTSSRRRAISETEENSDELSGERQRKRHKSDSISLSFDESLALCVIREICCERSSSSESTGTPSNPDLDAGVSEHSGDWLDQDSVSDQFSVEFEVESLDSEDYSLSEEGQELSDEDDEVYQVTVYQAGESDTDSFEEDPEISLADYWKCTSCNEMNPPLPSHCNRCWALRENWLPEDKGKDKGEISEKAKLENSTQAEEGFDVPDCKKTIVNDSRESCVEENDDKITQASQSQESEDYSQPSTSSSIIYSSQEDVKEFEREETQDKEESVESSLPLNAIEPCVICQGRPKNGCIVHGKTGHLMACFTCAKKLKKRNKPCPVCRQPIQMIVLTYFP

As for `COc1cc(C(=O)NC23CC(C#Cc4cccc5c4CN(C4CCC(=O)NC4=O)C5=O)(C2)C3)ccc1NC(=O)[C@@H]1N[C@@H](CC(C)(C)C)[C@@]2(CNc3cc(Cl)ccc32)[C@H]1c1cccc(Cl)c1F` (stereo partly drawn) [Example 21, (2′S,3S,4′S,5′R)-6-chloro-4′-(3-chloro-2-fluorophenyl)-2′-(2,2-dimethylpropyl)-N-{4-[(3-{2-[2-(2,6-dioxopiperidin-3-yl)-1-oxo-3H-isoindol-4-yl]ethynyl}bicyclo[1.1.1]pentan-1-yl)carbamoyl]-2-methoxyphenyl}-1,2-dihydrospiro[indole-3,3′-pyrrolidine]-5′-carboxamide], the IC50 at MDM2 is 3.45 nM; in assay [1], 448 nM.

For `COc1cc(N2CCC3(CC2)CC([C@@H]2C[C@H]2C#Cc2cccc4c2CN(C2CCC(=O)NC2=O)C4=O)C3)ccc1NC(=O)[C@@H]1N[C@@H](CC(C)(C)C)[C@@]2(CNc3cc(Cl)ccc32)[C@H]1c1cccc(Cl)c1F` (stereo partly drawn) [Example 22, (2′S,3S,4′S,5′R)-6-chloro-4′-(3-chloro-2-fluorophenyl)-N-(4-(2-((1S,2R)-2-((2-(2,6-dioxopiperidin-3-yl)-1-oxoisoindolin-4-yl)ethynyl)cyclopropyl)-7-azaspiro[3.5]nonan-7-yl)-2-methoxyphenyl)-2′-neopentylspiro[indoline-3,3′-pyrrolidine]-5′-carboxamide], the IC50 is 272 nM against MDM2 and > 1000 nM in assay [1].

On to `COc1cc(N2CCC3(CC2)CC([C@H]2C[C@@H]2C#Cc2cccc4c2CN(C2CCC(=O)NC2=O)C4=O)C3)ccc1NC(=O)[C@@H]1N[C@@H](CC(C)(C)C)[C@@]2(CNc3cc(Cl)ccc32)[C@H]1c1cccc(Cl)c1F` (stereo partly drawn) [Example 23, (2′S,3S,4′S,5′R)-6-chloro-4′-(3-chloro-2-fluorophenyl)-N-(4-(2-((1R,2S)-2-((2-(2,6-dioxopiperidin-3-yl)-1-oxoisoindolin-4-yl)ethynyl)cyclopropyl)-7-azaspiro[3.5]nonan-7-yl)-2-methoxyphenyl)-2′-neopentylspiro[indoline-3,3′-pyrrolidine]-5′-carboxamide], for which the IC50 at MDM2 was 169 nM; in assay [1], > 1000 nM.

Take `COc1cc(C(=O)N2CCC[C@H](CC#Cc3cccc4c3CN(C3CCC(=O)NC3=O)C4=O)C2)ccc1NC(=O)[C@@H]1N[C@@H](CC(C)(C)C)[C@@]2(CNc3cc(Cl)ccc32)[C@H]1c1cccc(Cl)c1F` (stereo partly drawn) [Example 24, (2′S,3S,4′S,5′R)-6-chloro-4′-(3-chloro-2-fluorophenyl)-N-(4-((3R)-3-(3-(2-(2,6-dioxopiperidin-3-yl)-1-oxoisoindolin-4-yl)prop-2-yn-1-yl)piperidine-1-carbonyl)-2-methoxyphenyl)-2′-neopentylspiro[indoline-3,3′-pyrrolidine]-5′-carboxamide]: the IC50 turned out to be 2.97 nM on MDM2 and 21.1 nM in assay [1].

As for `COc1cc(C(=O)N2CCC[C@@H](CC#Cc3cccc4c3CN(C3CCC(=O)NC3=O)C4=O)C2)ccc1NC(=O)[C@@H]1N[C@@H](CC(C)(C)C)[C@@]2(CNc3cc(Cl)ccc32)[C@H]1c1cccc(Cl)c1F` (stereo partly drawn) [Example 25, (2′S,3S,4′S,5′R)-6-chloro-4′-(3-chloro-2-fluorophenyl)-N-(4-((3S)-3-(3-(2-(2,6-dioxopiperidin-3-yl)-1-oxoisoindolin-4-yl)prop-2-yn-1-yl)piperidine-1-carbonyl)-2-methoxyphenyl)-2′-neopentylspiro[indoline-3,3′-pyrrolidine]-5′-carboxamide], the IC50 against MDM2 worked out at 3.72 nM; in assay [1], 21.6 nM.

As for `COc1cc(N2CCC([C@@H]3C[C@H]3C#Cc3cccc4c3CN(C3CCC(=O)NC3=O)C4=O)CC2)ccc1NC(=O)[C@@H]1N[C@@H](CC(C)(C)C)[C@@]2(CNc3cc(Cl)ccc32)[C@H]1c1cccc(Cl)c1F` (stereo partly drawn) [Example 26, (2′S,3S,4′S,5′R)-6-chloro-4′-(3-chloro-2-fluorophenyl)-2′-(2,2-dimethylpropyl)-N-(4-{4-[(1S,2R)-2-{2-[2-(2,6-dioxopiperidin-3-yl)-1-oxo-3H-isoindol-4-yl]ethynyl}cyclopropyl]piperidin-1-yl}-2-methoxyphenyl)-1,2-dihydrospiro[indole-3,3′-pyrrolidine]-5′-carboxamide], the IC50 against MDM2 turned out to be 46.8 nM; in assay [1], 448 nM.

As to `COc1cc(N2CCC([C@H]3C[C@@H]3C#Cc3cccc4c3CN(C3CCC(=O)NC3=O)C4=O)CC2)ccc1NC(=O)[C@@H]1N[C@@H](CC(C)(C)C)[C@@]2(CNc3cc(Cl)ccc32)[C@H]1c1cccc(Cl)c1F` (stereo partly drawn) [Example 27, (2′S,3S,4′S,5′R)-6-chloro-4′-(3-chloro-2-fluorophenyl)-2′-(2,2-dimethylpropyl)-N-(4-{4-[(1R,2S)-2-{2-[2-(2,6-dioxopiperidin-3-yl)-1-oxo-3H-isoindol-4-yl]ethynyl}cyclopropyl]piperidin-1-yl}-2-methoxyphenyl)-1,2-dihydrospiro[indole-3,3′-pyrrolidine]-5′-carboxamide], the IC50 on MDM2 was 16.5 nM; in assay [1], > 1000 nM.

Regarding `COc1cc(C(=O)N[C@H]2CCC[C@@H](C#Cc3cccc4c3CN(C3CCC(=O)NC3=O)C4=O)C2)ccc1NC(=O)[C@@H]1N[C@@H](CC(C)(C)C)[C@@]2(CNc3cc(Cl)ccc32)[C@H]1c1cccc(Cl)c1F` (stereo partly drawn) [Example 32, (2′S,3S,4′S,5′R)-6-chloro-4′-(3-chloro-2-fluorophenyl)-2′-(2,2-dimethylpropyl)-N-(4-{[(1S,3R)-3-{2-[2-(2,6-dioxopiperidin-3-yl)-1-oxo-3H-isoindol-4-yl]ethynyl}cyclohexyl]carbamoyl}-2-methoxyphenyl)-1,2-dihydrospiro[indole-3,3′-pyrrolidine]-5′-carboxamide], the IC50 against MDM2 was 2.59 nM; in assay [1] it was 83.2 nM.

For `COc1cc(C(=O)N[C@@H]2CCC[C@H](C#Cc3cccc4c3CN(C3CCC(=O)NC3=O)C4=O)C2)ccc1NC(=O)[C@@H]1N[C@@H](CC(C)(C)C)[C@@]2(CNc3cc(Cl)ccc32)[C@H]1c1cccc(Cl)c1F` (stereo partly drawn) [Example 33, (2′S,3S,4′S,5′R)-6-chloro-4′-(3-chloro-2-fluorophenyl)-2′-(2,2-dimethylpropyl)-N-(4-{[(1R,3S)-3-{2-[2-(2,6-dioxopiperidin-3-yl)-1-oxo-3H-isoindol-4-yl]ethynyl}cyclohexyl]carbamoyl}-2-methoxyphenyl)-1,2-dihydrospiro[indole-3,3′-pyrrolidine]-5′-carboxamide], the results for the IC50 (at MDM2; in assay [1]) were 2.29 nM and 104 nM, respectively.

With `COc1cc(C(=O)N[C@@H]2CCC[C@@H](C#Cc3cccc4c3CN(C3CCC(=O)NC3=O)C4=O)C2)ccc1NC(=O)[C@@H]1N[C@@H](CC(C)(C)C)[C@@]2(CNc3cc(Cl)ccc32)[C@H]1c1cccc(Cl)c1F` (stereo partly drawn) [Example 34, (2′S,3S,4′S,5′R)-6-chloro-4′-(3-chloro-2-fluorophenyl)-2′-(2,2-dimethylpropyl)-N-(4-{[(1R,3R)-3-{2-[2-(2,6-dioxopiperidin-3-yl)-1-oxo-3H-isoindol-4-yl]ethynyl}cyclohexyl]carbamoyl}-2-methoxyphenyl)-1,2-dihydrospiro[indole-3,3′-pyrrolidine]-5′-carboxamide], the IC50 was 2 nM on MDM2 and 122 nM in assay [1].

Consider `COc1cc(C(=O)N[C@H]2CCC[C@H](C#Cc3cccc4c3CN(C3CCC(=O)NC3=O)C4=O)C2)ccc1NC(=O)[C@@H]1N[C@@H](CC(C)(C)C)[C@@]2(CNc3cc(Cl)ccc32)[C@H]1c1cccc(Cl)c1F` (stereo partly drawn) [Example 35, (2′S,3S,4′S,5′R)-6-chloro-4′-(3-chloro-2-fluorophenyl)-2′-(2,2-dimethylpropyl)-N-(4-{[(1S,3S)-3-{2-[2-(2,6-dioxopiperidin-3-yl)-1-oxo-3H-isoindol-4-yl]ethynyl}cyclohexyl]carbamoyl}-2-methoxyphenyl)-1,2-dihydrospiro[indole-3,3′-pyrrolidine]-5′-carboxamide], for which the IC50 against MDM2 worked out at 3.74 nM; in assay [1], 82.7 nM.

As to `COc1cc(C(=O)N2CCCC[C@@H]2CCC#Cc2cccc3c2CN([C@@H]2CCC(=O)NC2=O)C3=O)ccc1NC(=O)[C@@H]1N[C@@H](CC(C)(C)C)[C@@]2(CNc3cc(Cl)ccc32)[C@H]1c1cccc(Cl)c1F` [Example 36, (2′S,3S,4′S,5′R)-6-chloro-4′-(3-chloro-2-fluorophenyl)-2′-(2,2-dimethylpropyl)-N-{4-[(2R)-2-(4-{2-[(3R)-2,6-dioxopiperidin-3-yl]-1-oxo-3H-isoindol-4-yl}but-3-yn-1-yl)piperidine-1-carbonyl]-2-methoxyphenyl}-1,2-dihydrospiro[indole-3,3′-pyrrolidine]-5′-carboxamide], the results for the IC50 (against MDM2; in assay [1]) were 2.03 nM and 35.4 nM, respectively.

In the case of `COc1cc(C(=O)N2CCCC[C@@H]2CCC#Cc2cccc3c2CN([C@H]2CCC(=O)NC2=O)C3=O)ccc1NC(=O)[C@@H]1N[C@@H](CC(C)(C)C)[C@@]2(CNc3cc(Cl)ccc32)[C@H]1c1cccc(Cl)c1F` [Example 37, (2′S,3S,4′S,5′R)-6-chloro-4′-(3-chloro-2-fluorophenyl)-2′-(2,2-dimethylpropyl)-N-{4-[(2R)-2-(4-{2-[(3S)-2,6-dioxopiperidin-3-yl]-1-oxo-3H-isoindol-4-yl}but-3-yn-1-yl)piperidine-1-carbonyl]-2-methoxyphenyl}-1,2-dihydrospiro[indole-3,3′-pyrrolidine]-5′-carboxamide], the IC50 against MDM2 was found to be 1.95 nM; in assay [1], 34.4 nM.
